PubChem BioAssay AID1259408 (Genetic Toxicology Data Bank (GENE-TOX), 2018)
Activity calls are given as the source filed them. No rule for the calls is given here.

Tested on: GENE-TOX genotoxicity assays, various organisms and cells
Test: GENE-TOX mutagenicity studies
Settings: for call: Assay Type: In vivo carcinogenicity studies
Text: GENE-TOX provides genetic toxicology (mutagenicity) test data from expert peer review of open scientific literature for more than 3,000 chemicals from the United States Environmental Protection Agency (EPA). GENE-TOX was established to select assay systems for evaluation, review data in the scientific literature, and recommend proper testing protocols and evaluation procedures for these systems.
GENE-TOX covers the years 1991 - 1998. It is no longer updated.
This is an archive assay for GENE-TOX mutagenicity studies.

[1] = Species/Cell Type: Fischer rat embryo (RLV/1706) cells, Assay Type: Cell transformation, viral enhanced, Assay Code: CTR+, Evaluation Type: Evaluation A (Pre-1980)
[2] = Species/Cell Type: Mouse, Sex: Male, Assay Type: Sperm morphology, Assay Code: SPI-, Evaluation Type: Evaluation A (Pre-1980)
[3] = Species/Cell Type: Nonhuman, Assay Code: CCG+, Evaluation Type: Evaluation A (Pre-1980)
[4] = Species/Cell Type: Nonhuman, Assay Type: Sister-chromatid exchange (SCE) in vitro, Assay Code: SC2+D*, Activation: With metabolic activation, Dose Response: With dose response, Evaluation Type: Evaluation B (Post-1980)
[5] = Species/Cell Type: Salmonella typhimurium (one or more of the five standard strains: TA98, TA100, TA1535, TA1537, and TA1538), Assay Type: Histidine reverse gene mutation, Ames assay, Assay Code: SAL+*, Activation: With metabolic activation, Evaluation Type: Evaluation A (Pre-1980)
[6] = Species/Cell Type: Syrian hamster embryo (SHE) cells, Assay Type: Cell transformation, clonal assay, Assay Code: CTC+, Evaluation Type: Evaluation A (Pre-1980)
[7] = Species/Cell Type: Mammalian polychromatic erythrocytes, Assay Type: Micronucleus test, chromosome aberrations, Assay Code: MNTT, Evaluation Type: Evaluation A (Pre-1980)
[8] = Species/Cell Type: Drosophila melanogaster, Assay Type: Sex-linked recessive lethal gene mutation, Assay Code: SRL+, Evaluation Type: Evaluation A (Pre-1980)
[9] = Species/Cell Type: Salmonella typhimurium (one or more of the five standard strains: TA98, TA100, TA1535, TA1537, and TA1538), Assay Type: Histidine reverse gene mutation, Ames assay, Assay Code: SAL-, Evaluation Type: Evaluation A (Pre-1980)
[10] = Species/Cell Type: Vicia faba, Assay Type: Chromosome aberrations, Assay Code: VIC+, Evaluation Type: Evaluation A (Pre-1980)

Nc1ccc(-c2ccc(N)cc2)cc1
mutagenic call (Species/Cell Type: Drosophila melanogaster, Assay Type: Sex-linked recessive lethal gene mutation, Assay Code: SRL-, Evaluation Type: Evaluation A (Pre-1980)): inactive; negative
mutagenic call (Species/Cell Type: Escherichia coli polA (W3119 vs P3478), Assay Type: Rec-assay, DNA effects (bacterial DNA repair), Assay Code: RE1T, Evaluation Type: Evaluation A (Pre-1980)): no conclusion
mutagenic call [1]: active; positive
mutagenic call (Species/Cell Type: Human diploid fibroblasts, Assay Type: Unscheduled DNA synthesis (UDS) in vitro, DNA effects, Assay Code: UDHT, Evaluation Type: Evaluation A (Pre-1980)): no conclusion
mutagenic call (Species/Cell Type: Human, Assay Type: Sister-chromatid exchange (SCE) in vitro, Assay Code: SC1+D*, Activation: With metabolic activation, Dose Response: With dose response, Evaluation Type: Evaluation B (Post-1980)): active; positive
mutagenic call (Species/Cell Type: Mammalian polychromatic erythrocytes, Assay Type: Micronucleus test, chromosome aberrations, Assay Code: MNT+, Evaluation Type: Evaluation A (Pre-1980)): active; positive
mutagenic call (Species/Cell Type: Mouse embryo (AKR/ME) cells, Assay Type: Cell transformation, Assay Code: CTK+, Evaluation Type: Evaluation A (Pre-1980)): active; positive
mutagenic call [2]: inactive; negative
call [3]: active; positive
mutagenic call [4]: active; positive
mutagenic call (Species/Cell Type: Nonhuman, Assay Type: Sister-chromatid exchange (SCE) in vivo, Assay Code: SC3+, Evaluation Type: Evaluation B (Post-1980)): active; positive
mutagenic call (Species/Cell Type: Rat primary hepatocytes, Assay Type: Unscheduled DNA synthesis (UDS) in vitro, DNA effects, Assay Code: UDP+, Evaluation Type: Evaluation A (Pre-1980)): active; positive
mutagenic call [5]: active; positive
mutagenic call (Species/Cell Type: Syrian hamster embryo (SA7/SHE) cells, Assay Type: Cell transformation, viral enhanced, Assay Code: CT7+, Evaluation Type: Evaluation A (Pre-1980)): active; positive
mutagenic call [6]: active; positive
mutagenic call (Species/Cell Type: Tradescantia species, Assay Type: Gene mutation, Assay Code: TRM+D, Dose Response: With dose response, Evaluation Type: Evaluation A (Pre-1980)): active; positive

C/C(=C/c1ccc(SC#N)cc1)[N+](=O)[O-]
mutagenic call (Species/Cell Type: Bacillus subtilis (H17 vs M45), Assay Type: Rec-assay, spot test, DNA effects (bacterial DNA repair), Assay Code: REW+, Evaluation Type: Evaluation A (Pre-1980)): active; positive

Cc1cc(NC(=O)C2=C(O)c3ccccc3S(=O)(=O)N2C)no1
mutagenic call (Species/Cell Type: Human lymphocytes, Assay Type: Sister-chromatid exchange (SCE) in vivo, Assay Code: SCY+, Evaluation Type: Evaluation B (Post-1980)): active; positive

COc1ccc2c(c1)CCC(c1ccccc1)=C2c1ccc(OCCN2CCCC2)cc1
mutagenic call (Species/Cell Type: Rabbit, Sex: Male, Assay Type: Sperm morphology, Assay Code: SPR+, Evaluation Type: Evaluation A (Pre-1980)): active; positive

COC(=O)[C@H]1[C@H]2C[C@@H]3c4[nH]c5cc(OC)ccc5c4CCN3C[C@H]2C[C@@H](OC(=O)c2cc(OC)c(OC)c(OC)c2)[C@@H]1OC
mutagenic call (Species/Cell Type: Aspergillus nidulans, Assay Type: Aneuploidy, chromosome aberrations, Assay Code: ASNT, Evaluation Type: Evaluation A (Pre-1980)): no conclusion
call [3]: active; positive

OCCN1CN(CCO)CN(CCO)C1
mutagenic call [7]: no conclusion

N=NN
mutagenic call [8]: active; positive

Cc1cc(C)c(S(=O)(=O)O)cc1N=Nc1cc(S(=O)(=O)O)c2ccccc2c1O
mutagenic call (Species/Cell Type: Bacillus subtilis (H17 vs M45), Assay Type: Rec-assay, spot test, DNA effects (bacterial DNA repair), Assay Code: REWT, Evaluation Type: Evaluation A (Pre-1980)): no conclusion
mutagenic call (Species/Cell Type: Bacillus subtilis (H17 vs M45T), Assay Type: Rec-assay, spot test, DNA effects (bacterial DNA repair), Assay Code: REXT, Evaluation Type: Evaluation A (Pre-1980)): no conclusion
mutagenic call [9]: inactive; negative

c1ccc2c3c(ccc2c1)-c1cccc2cccc-3c12
call [3]: active; positive

C[CH2][Hg][S]c1ccc(OS(=O)O)cc1
mutagenic call (Species/Cell Type: Saccharomyces cerevisiae, Assay Type: Aneuploidy, chromosome aberrations, Assay Code: YEN+, Evaluation Type: Evaluation A (Pre-1980)): active; positive

CCCCN(CC(O)CCO)N=O (stereo unspecified)
mutagenic call [5]: active; positive

CS(=O)(=O)OC/C=C/COS(C)(=O)=O
mutagenic call [8]: active; positive

O=C1CC[C@@]2(O)[C@H]3Cc4ccc(O)c5c4[C@@]2(CCN3CC2CC2)[C@H]1O5
mutagenic call [8]: active; positive
mutagenic call (Species/Cell Type: Drosophila melanogaster, Sex: Male, Assay Type: Heritable translocation test, chromosome aberrations, Assay Code: DHT-, Evaluation Type: Evaluation A (Pre-1980)): inactive; negative
mutagenic call (Species/Cell Type: Human diploid fibroblasts, Assay Type: Unscheduled DNA synthesis (UDS) in vitro, DNA effects, Assay Code: UDH+, Evaluation Type: Evaluation A (Pre-1980)): active; positive
mutagenic call (Species/Cell Type: Saccharomyces cerevisiae, Assay Type: Mitotic recombination or gene conversion, Assay Code: YEC-, Evaluation Type: Evaluation A (Pre-1980)): inactive; negative
mutagenic call (Species/Cell Type: Salmonella typhimurium (one or more of the five standard strains: TA98, TA100, TA1535, TA1537, and TA1538), Assay Type: Histidine reverse gene mutation, Ames assay, Assay Code: SALT, Evaluation Type: Evaluation A (Pre-1980)): no conclusion

Cc1ccc(N)cc1Cl
call (Species/Cell Type: Nonhuman, Assay Code: CCG-, Evaluation Type: Evaluation A (Pre-1980)): inactive; negative

O=c1[nH]cc(I)c(=O)[nH]1
mutagenic call [10]: active; positive

Cc1cccc(OC(=O)N(C)N=O)c1
mutagenic call (Species/Cell Type: Bacillus subtilis (H17 vs M45T), Assay Type: Rec-assay, spot test, DNA effects (bacterial DNA repair), Assay Code: REX+, Evaluation Type: Evaluation A (Pre-1980)): active; positive
mutagenic call (Species/Cell Type: Escherichia coli WP2, Assay Type: Tryptophan reverse gene mutation, Assay Code: WP2+, Evaluation Type: Evaluation A (Pre-1980)): active; positive

Nc1ncn[nH]1
mutagenic call (Species/Cell Type: Allium cepa, Assay Type: Chromosome aberrations, Assay Code: ALC+, Evaluation Type: Evaluation A (Pre-1980)): active; positive
mutagenic call (Species/Cell Type: Drosophila melanogaster, Assay Type: Aneuploidy, sex chromosome gain, chromosome aberrations, Assay Code: DAG-F, Evaluation Type: Evaluation A (Pre-1980)): inactive; negative
mutagenic call (Species/Cell Type: Drosophila melanogaster, Assay Type: Aneuploidy, whole sex chromosome loss, chromosome aberrations, Assay Code: DAC-F, Evaluation Type: Evaluation A (Pre-1980)): inactive; negative
mutagenic call (Species/Cell Type: Drosophila melanogaster, Assay Type: Sex-linked recessive lethal gene mutation, Assay Code: SRLT, Evaluation Type: Evaluation A (Pre-1980)): no conclusion
mutagenic call (Species/Cell Type: Escherichia coli polA (W3110 vs P3478), Assay Type: Rec-assay, DNA effects (bacterial DNA repair), Assay Code: RE2-, Evaluation Type: Evaluation A (Pre-1980)): inactive; negative
mutagenic call (Species/Cell Type: Escherichia coli polA (W3119 vs P3478), Assay Type: Rec-assay, DNA effects (bacterial DNA repair), Assay Code: RE1-, Evaluation Type: Evaluation A (Pre-1980)): inactive; negative
mutagenic call [1]: active; positive
mutagenic call (Species/Cell Type: Hordeum vulgare (barley), Assay Type: Chromosome aberrations, Assay Code: HOC+, Evaluation Type: Evaluation A (Pre-1980)): active; positive
mutagenic call (Species/Cell Type: Human diploid fibroblasts, Assay Type: Unscheduled DNA synthesis (UDS) in vitro, DNA effects, Assay Code: UDH-, Evaluation Type: Evaluation A (Pre-1980)): inactive; negative
mutagenic call [7]: no conclusion
mutagenic call [2]: inactive; negative
mutagenic call (Species/Cell Type: Neurospora crassa, Assay Type: Aneuploidy, chromosome aberrations, Assay Code: NEN-, Evaluation Type: Evaluation A (Pre-1980)): inactive; negative
call [3]: active; positive
mutagenic call [4]: active; positive
mutagenic call (Species/Cell Type: Saccharomyces cerevisiae, Assay Type: Mitotic recombination or gene conversion, Assay Code: YEH-, Evaluation Type: Evaluation A (Pre-1980)): inactive; negative
mutagenic call [9]: inactive; negative
mutagenic call (Species/Cell Type: Salmonella typhimurium, Assay Type: Forward and reverse gene mutation, host-mediated assay, Assay Code: HMA+, Evaluation Type: Evaluation A (Pre-1980)): active; positive
mutagenic call [6]: active; positive
mutagenic call [10]: active; positive

CC(N)=S=O
mutagenic call (Species/Cell Type: Mammalian polychromatic erythrocytes, Assay Type: Micronucleus test, chromosome aberrations, Assay Code: MNT+U, Dose Response: Unconfirmed positive response, Evaluation Type: Evaluation B (Post-1980)): active; positive

Oc1ccc2c(cc3ccc4cccc5ccc2c3c45)c1O
mutagenic call (Species/Cell Type: Mouse prostate cells, Assay Type: Cell transformation, Assay Code: CTM+D, Dose Response: With dose response, Evaluation Type: Evaluation A (Pre-1980)): active; positive
mutagenic call [6]: active; positive
